According to paper PMC6193938, “Characterization of a novel AICARFT inhibitor which potently elevates ZMP and has anti-tumor activity in murine models” (Scientific Reports, 2018):

What was measured:
ALK4 = biological target: T1, ALK4 (Homo sapiens, UniProt P36896); assay: CEREP protein kinase assay; assay type: biochemical
T1 construct: purchased CEREP Panlabs (Eurofins)
T1 sequence (P36896 24-505): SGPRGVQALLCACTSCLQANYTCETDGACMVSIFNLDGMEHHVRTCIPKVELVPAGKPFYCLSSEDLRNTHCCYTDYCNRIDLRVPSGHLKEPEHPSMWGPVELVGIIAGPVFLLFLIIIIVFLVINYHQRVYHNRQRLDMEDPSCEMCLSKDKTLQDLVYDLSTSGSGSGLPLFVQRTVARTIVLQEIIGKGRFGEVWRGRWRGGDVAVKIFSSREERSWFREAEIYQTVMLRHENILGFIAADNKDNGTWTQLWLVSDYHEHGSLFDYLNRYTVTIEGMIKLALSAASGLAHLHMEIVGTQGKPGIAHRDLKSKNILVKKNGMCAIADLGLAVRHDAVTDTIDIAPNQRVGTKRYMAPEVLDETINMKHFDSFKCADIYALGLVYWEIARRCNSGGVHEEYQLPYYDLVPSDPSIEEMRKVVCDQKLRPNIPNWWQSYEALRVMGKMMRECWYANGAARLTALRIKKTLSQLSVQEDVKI

JAK3 = biological target: T2, JAK3 (Homo sapiens, UniProt P52333); assay: CEREP protein kinase assay; assay type: biochemical
T2 construct: purchased CEREP Panlabs (Eurofins)
T2 sequence (P52333 1-1124): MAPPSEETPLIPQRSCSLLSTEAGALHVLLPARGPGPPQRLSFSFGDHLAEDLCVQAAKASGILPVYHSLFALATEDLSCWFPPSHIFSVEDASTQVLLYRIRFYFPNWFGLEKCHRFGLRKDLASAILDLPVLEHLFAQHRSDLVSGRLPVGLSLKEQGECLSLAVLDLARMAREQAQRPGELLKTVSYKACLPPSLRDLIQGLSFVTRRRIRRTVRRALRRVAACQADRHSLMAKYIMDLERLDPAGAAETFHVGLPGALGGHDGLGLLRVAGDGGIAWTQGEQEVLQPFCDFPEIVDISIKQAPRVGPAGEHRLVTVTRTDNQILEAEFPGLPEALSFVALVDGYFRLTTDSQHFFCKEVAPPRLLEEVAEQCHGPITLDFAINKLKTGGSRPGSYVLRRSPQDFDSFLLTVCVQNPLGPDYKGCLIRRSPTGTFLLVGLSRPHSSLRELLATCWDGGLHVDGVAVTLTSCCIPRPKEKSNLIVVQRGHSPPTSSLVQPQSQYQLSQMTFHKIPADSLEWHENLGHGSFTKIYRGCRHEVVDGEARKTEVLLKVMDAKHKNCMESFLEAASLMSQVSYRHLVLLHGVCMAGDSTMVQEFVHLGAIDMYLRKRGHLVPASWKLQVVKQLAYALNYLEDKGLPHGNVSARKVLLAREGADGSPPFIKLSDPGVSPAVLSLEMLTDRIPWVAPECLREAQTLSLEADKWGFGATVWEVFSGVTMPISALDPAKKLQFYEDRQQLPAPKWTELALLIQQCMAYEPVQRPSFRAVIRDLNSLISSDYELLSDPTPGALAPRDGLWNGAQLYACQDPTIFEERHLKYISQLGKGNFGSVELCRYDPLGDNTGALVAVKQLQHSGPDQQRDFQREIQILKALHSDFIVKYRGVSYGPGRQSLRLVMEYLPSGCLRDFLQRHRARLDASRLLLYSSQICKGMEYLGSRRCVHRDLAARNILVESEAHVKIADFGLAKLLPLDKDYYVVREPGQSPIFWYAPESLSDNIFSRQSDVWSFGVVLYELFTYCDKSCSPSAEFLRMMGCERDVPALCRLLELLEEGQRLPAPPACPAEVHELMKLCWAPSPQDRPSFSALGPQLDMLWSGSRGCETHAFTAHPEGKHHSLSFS

Q: Which results are given for `O=c1[nH]ccc2cc(F)c(NS(=O)(=O)c3ccc(N4CC[C@@H](O)C4)s3)cc12` [LSN3213128, N-(6-Fluoro-1-oxo-1,2-dihydroisoquinolin-7-yl)-5-[(3R)-3-hydroxypyrrolidin-1-yl]thiophene-2-sulfonamide]?
A: inhibition at 0.2 µM (ALK4; @ 0.2 uM): -10.5%; inhibition at 2 µM (ALK4; @ 2 uM): 10.4%; inhibition at 20 µM (ALK4; @ 20 uM): 55%; inhibition at 0.2 µM (JAK3; @ 0.2 uM): -5.81%; inhibition at 2 µM (JAK3; @ 2 uM): 2.78%; inhibition at 20 µM (JAK3; @ 20 uM): 28.6%
